Laboratory results published in ChEMBL document CHEMBL1201862, “PubChem BioAssay data set” (2004).
The source made the active and inactive calls.

What was measured:
[1] = system: H4; assay: Luminescence Cell-Based Dose Response HTS to Identify Activators of 5'UTR Stem-Loop Driven Prion Protein mRNA Translation in H4 Neuroglioblastoma Cells. [Related pubchem assays: 1829 (Project Summary), 1814 (Primary HTS)]; format: functional; conditions: Homo sapiens
[2] = Luminescence Cell-Based Dose Confirmation HTS to Identify Activators of 5'UTR Stem-Loop Driven Alpha-Synuclein mRNA Translation in H4 Neuroglioblastoma Cells. [Related pubchem assays: 1829 (Project Summary), 1814 (Primary HTS)]; format: functional
[3] = Luminescence Cell-Based Dose Response HTS to Identify Activators of Luciferase Translation or Activity in H4 […] Cells. [Related pubchem assays: 1829 (Project Summary), 1814 (Primary HTS)]; format: functional
[4] = target: T1, Protein skinhead-1 (Caenorhabditis elegans, UniProt P34707); format: functional
T1 sequence (P34707 whole entry): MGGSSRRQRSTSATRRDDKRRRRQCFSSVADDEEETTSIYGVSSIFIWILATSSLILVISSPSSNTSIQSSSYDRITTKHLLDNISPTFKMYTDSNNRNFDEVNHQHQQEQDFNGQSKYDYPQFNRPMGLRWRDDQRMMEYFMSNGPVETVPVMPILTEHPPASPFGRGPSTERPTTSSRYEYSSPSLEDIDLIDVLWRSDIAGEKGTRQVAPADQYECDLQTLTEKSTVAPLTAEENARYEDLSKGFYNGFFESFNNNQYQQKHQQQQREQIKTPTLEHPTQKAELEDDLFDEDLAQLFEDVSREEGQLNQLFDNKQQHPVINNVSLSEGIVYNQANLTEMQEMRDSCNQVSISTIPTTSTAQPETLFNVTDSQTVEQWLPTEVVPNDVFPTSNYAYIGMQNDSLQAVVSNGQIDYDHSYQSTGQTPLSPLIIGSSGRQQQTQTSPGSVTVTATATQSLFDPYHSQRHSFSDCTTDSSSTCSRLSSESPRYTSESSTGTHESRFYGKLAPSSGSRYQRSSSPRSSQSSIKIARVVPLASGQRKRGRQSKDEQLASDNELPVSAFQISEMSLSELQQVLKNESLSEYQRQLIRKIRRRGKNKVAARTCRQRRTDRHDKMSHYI

[5] = NIH-3T3 fibroblast cytotoxicity, dose response, cytotoxicity control, cell-based, fluorescence, Alamar Blue, secondary assay (AID 2327); format: functional;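 also: NIH-3T3 mouse fibroblasts cultured with fluconazole at 8 µg/mL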
[6] = fluconazole-exposed Candida albicans growth modulators – fluorescence, retest, confirmation (AID 2467); format: functional, cell-based
[7] = target: T2, Cytochrome P450 1A2 (Homo sapiens, UniProt P05177);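 also: PubChem cytochrome P450 panel assay, CYP1A2 panel member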
T2 sequence (P05177 whole entry): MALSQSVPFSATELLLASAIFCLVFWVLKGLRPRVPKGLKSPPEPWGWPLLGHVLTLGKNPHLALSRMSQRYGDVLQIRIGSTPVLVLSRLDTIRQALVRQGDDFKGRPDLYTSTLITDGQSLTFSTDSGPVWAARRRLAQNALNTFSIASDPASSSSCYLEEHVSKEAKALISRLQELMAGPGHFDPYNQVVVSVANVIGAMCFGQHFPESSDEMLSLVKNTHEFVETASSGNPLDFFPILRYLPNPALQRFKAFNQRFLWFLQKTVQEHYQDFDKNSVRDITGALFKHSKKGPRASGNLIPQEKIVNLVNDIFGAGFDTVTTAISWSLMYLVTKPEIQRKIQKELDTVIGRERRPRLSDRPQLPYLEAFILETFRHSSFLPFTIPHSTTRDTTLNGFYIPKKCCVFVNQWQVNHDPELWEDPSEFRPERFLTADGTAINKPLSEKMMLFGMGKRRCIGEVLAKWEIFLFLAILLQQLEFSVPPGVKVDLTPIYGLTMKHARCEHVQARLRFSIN

[8] = target: Cytochrome P450 2C9 (Homo sapiens, UniProt P11712)
[9] = target: Cytochrome P450 3A4 (Homo sapiens, UniProt P08684);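 also: CYP3A4 tested as one member of a cytochrome P450 panel screen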
[10] = target: T3, Streptokinase A (Streptococcus pyogenes serotype M1, UniProt P10520); assay: viability-normalized secreted streptokinase activity reduction – plasminogen activation absorbance, OD405, dose response (AID 1914); format: functional, Streptococcus pyogenes M1 GAS;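 also: secreted streptokinase activity via plasminogen activation per viability signal from cell pellet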
T3 sequence (P10520 whole entry): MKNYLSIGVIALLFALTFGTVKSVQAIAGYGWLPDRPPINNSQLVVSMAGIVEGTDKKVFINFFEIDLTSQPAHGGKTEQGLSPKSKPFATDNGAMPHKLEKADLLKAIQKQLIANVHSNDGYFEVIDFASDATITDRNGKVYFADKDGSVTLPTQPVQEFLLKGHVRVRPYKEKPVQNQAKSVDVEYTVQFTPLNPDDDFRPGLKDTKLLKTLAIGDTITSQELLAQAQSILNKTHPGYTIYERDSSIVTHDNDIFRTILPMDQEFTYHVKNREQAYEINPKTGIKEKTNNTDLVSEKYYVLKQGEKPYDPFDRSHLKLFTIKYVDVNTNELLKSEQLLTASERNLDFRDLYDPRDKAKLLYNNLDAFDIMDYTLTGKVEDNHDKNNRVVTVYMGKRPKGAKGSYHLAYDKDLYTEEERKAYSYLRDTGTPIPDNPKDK

[11] = target: Cytochrome P450 2C19 (Homo sapiens, UniProt P33261); assay: Cytochrome panel assay with activity outcomes. Panel member name: p450-cyp2c19 Compounds with AC50 equal or less than 10 uM are considered active; format: functional; conditions: read-out: AC50
[12] = system: Streptococcus; assay: GAS UMAA2166 growth inhibition – luminescence, BacTiterGlo, counter-screen for streptokinase expression inhibitor project, dose response (AID 1915); format: functional, organism-based;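 also: potency for reduction of bacterial viability or growth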
[13] = system: Streptococcus sp. 'group A'; assay: Streptococcus pyogenes SK(-)GAS viability under kanamycin – luminescence, BacTiterGlo, confirmation, counter-screen for streptokinase expression inhibitor project, dose response (AID 1900); format: functional, organism-based
[14] = target: Paired box protein Pax-8 (Homo sapiens, UniProt Q06710); assay: PAX8 transcriptional activity inhibition in RMG-I – RMG-I cells, luciferase, cherry-pick, dose response (AID 687027); format: functional, cell-based;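 also: luciferase reporter driven by Pax8 target thyroperoxidase promoter measured by SteadyGlo luminescence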
Paired box protein Pax-8, sequence (Q06710 whole entry): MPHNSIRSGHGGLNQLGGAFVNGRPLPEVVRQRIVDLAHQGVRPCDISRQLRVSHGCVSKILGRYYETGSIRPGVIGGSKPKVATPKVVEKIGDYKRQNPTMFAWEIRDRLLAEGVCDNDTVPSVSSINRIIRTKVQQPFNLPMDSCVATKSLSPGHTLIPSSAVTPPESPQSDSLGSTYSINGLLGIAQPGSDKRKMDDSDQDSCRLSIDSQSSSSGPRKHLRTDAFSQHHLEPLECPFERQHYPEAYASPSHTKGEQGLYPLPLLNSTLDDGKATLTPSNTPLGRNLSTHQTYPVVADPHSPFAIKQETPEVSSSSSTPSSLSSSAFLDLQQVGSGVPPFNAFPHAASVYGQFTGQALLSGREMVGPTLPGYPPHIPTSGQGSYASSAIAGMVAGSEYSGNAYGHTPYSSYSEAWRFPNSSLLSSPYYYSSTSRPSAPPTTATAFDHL

Cytochrome P450 2C19, sequence (P33261 whole entry): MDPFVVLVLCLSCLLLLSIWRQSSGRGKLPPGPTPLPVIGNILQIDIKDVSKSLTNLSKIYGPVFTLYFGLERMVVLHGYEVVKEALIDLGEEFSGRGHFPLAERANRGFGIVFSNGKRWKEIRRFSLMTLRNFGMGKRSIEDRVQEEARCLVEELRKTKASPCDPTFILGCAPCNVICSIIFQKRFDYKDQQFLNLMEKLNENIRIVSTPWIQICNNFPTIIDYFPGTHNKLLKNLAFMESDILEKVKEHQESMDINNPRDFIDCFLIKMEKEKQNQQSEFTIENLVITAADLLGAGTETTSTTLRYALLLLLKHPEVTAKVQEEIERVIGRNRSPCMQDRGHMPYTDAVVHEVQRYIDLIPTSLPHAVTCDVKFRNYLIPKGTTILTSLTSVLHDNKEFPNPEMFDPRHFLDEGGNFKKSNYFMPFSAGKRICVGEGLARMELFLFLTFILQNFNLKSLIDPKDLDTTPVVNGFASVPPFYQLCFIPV
Cytochrome P450 2C9, sequence (P11712 whole entry): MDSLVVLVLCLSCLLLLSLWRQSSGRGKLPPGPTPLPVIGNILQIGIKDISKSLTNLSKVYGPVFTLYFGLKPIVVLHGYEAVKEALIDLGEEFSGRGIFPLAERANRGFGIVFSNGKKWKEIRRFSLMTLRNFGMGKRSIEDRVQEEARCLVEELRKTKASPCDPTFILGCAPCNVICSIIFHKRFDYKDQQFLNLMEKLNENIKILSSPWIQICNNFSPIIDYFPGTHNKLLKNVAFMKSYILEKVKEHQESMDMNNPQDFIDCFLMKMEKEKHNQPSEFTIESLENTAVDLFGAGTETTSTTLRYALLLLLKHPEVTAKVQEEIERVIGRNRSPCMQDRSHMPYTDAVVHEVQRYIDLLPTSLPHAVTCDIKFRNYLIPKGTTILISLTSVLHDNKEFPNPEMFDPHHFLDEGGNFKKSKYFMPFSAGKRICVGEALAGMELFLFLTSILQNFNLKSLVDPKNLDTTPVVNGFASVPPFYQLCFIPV
Cytochrome P450 3A4, sequence (P08684 whole entry): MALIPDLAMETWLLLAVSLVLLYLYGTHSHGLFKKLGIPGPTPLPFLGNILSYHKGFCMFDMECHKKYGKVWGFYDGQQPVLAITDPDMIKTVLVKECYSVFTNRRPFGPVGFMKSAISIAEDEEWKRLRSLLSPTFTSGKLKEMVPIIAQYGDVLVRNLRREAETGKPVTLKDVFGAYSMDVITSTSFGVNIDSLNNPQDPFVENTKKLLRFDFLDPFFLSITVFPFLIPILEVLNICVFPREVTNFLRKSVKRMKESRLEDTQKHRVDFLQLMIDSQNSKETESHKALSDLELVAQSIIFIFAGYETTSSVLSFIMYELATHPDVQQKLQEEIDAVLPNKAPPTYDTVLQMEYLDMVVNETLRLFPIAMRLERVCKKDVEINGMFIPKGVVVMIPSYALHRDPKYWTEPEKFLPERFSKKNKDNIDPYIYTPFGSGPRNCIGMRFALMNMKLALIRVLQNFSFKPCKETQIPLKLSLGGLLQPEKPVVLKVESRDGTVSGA

C=CCSc1n[nH]c(-c2ccccc2)n1
EC50 [1]: 75.3 µM (active) | EC50 [2]: 9.22 µM (active) | EC50 [3]: 8.06 µM (active)

Cc1cc(NC(=O)COc2cccc(Oc3ccccc3)c2)no1
EC50 [1]: > 120 µM (not active) | EC50 [2]: > 120 µM (not active) | EC50 [3]: > 120 µM (not active)

O=C(/C=C\Nc1ccc(Br)cc1)c1cccnc1
IC50 [4]: 71.4 µM (inactive)

COc1cccc(C(C(=O)NC2CCCC2)N(C(=O)c2ccco2)c2ccc(-n3cnnn3)c(C)c2)c1OC (centres undefined)
EC50 [5]: > 150 µM (inconclusive) | EC50 [6]: > 38 µM (not active)

N#CCCn1c(=O)c(-c2cc(F)cc(F)c2)nc2cnc(Nc3ccccc3)nc21
AC50 [7]: 3.16 µM (inconclusive)

N#Cc1c2c(c(-n3cnc4ccccc43)n3c1nc1ccccc13)CCC2
AC50 [8]: 10 µM (inconclusive) | AC50 [9]: 3.16 µM (inconclusive) | AC50 [7]: 25.1 µM (inconclusive)

CCCSc1cc(N2CCCC2)nc(-c2ccccc2)n1
EC50 [10]: > 150 µM (not active) | AC50 [11]: 39.8 µM (inconclusive) | AC50 [8]: 2 µM (inconclusive) | EC50 [12]: > 150 µM (not active) | EC50 [13]: 35 µM (active)

O=C1CC(N2CCN(C(c3ccccc3)c3ccccc3)CC2)C(=O)N1Cc1ccc(N2CCCC2=O)cc1 (centres undefined)
AC50 [11]: 5.01 µM (inconclusive) | AC50 [9]: 22.4 µM (inconclusive)

Cc1ccccc1C(C(=O)NC1CCCC1)N(C(=O)Cc1cccs1)c1ccc2c(c1)OCCO2 (centres undefined)
AC50 [8]: 0.891 µM (inconclusive)

O=C1c2ccccc2CCc2ccc(Br)cc21
IC50 [4]: 35.6 µM (active)

Cc1oc(-c2cccs2)[n+]([O-])c1C
AC50 [7]: 25.1 µM (inconclusive)

Oc1ccc(C2C(c3ccccc3)=NN=C(c3ccccc3F)N2O)c(O)c1 (centres undefined)
EC50 [1]: > 120 µM (not active) | EC50 [2]: 95.8 µM (active) | EC50 [3]: 72.3 µM (active)

CCOc1ccc(/C=C2\C(=O)c3ccccc3OC2c2ccccc2)cc1 (centres undefined)
AC50 [8]: 10 µM (inconclusive) | AC50 [7]: 12.6 µM (inconclusive)

COc1ccc(-n2c(=O)c(-c3ccc(Cl)cc3)nc3cncnc32)cc1
AC50 [7]: 5.01 µM (inconclusive)

COc1ccc(NC(=O)CSc2n[nH]c(N)n2)cc1OC
EC50 [1]: > 120 µM (not active) | EC50 [2]: > 120 µM (not active) | EC50 [3]: > 120 µM (not active)

CCCc1nnc(NC(=O)c2cccs2)s1
AC50 [11]: 25.1 µM (inconclusive) | AC50 [8]: 12.6 µM (inconclusive)

CN(C)N1C(N)=C(C#N)C(c2cccnc2)C2=C1CC(C)(C)CC2=O (centres undefined)
AC50 [8]: 0.0224 µM (inconclusive)

O=C(NCc1ccccc1)C(c1ccncc1)N(C(=O)c1csnn1)C1CC1 (centres undefined)
AC50 [8]: 1.78 µM (inconclusive)

CCCCOc1ccccc1N
AC50 [8]: 39.8 µM (inconclusive) | AC50 [7]: 39.8 µM (inconclusive)

COc1cc(C2C3=C(COC3=O)Oc3cc4c(cc32)OCO4)cc(OC)c1O (centres undefined)
AC50 [14]: 1.74 µM (active)

COC(=O)c1ccc(CC2(C)C(=O)Nc3ccc(-c4cccc(C(F)(F)F)c4)cc32)o1 (centres undefined)
IC50 [4]: 79.3 µM (inactive)

C/C(=C\C(=O)c1ccc(Br)cc1)NCc1ccccc1
EC50 [1]: 90.3 µM (active) | EC50 [2]: > 120 µM (not active) | EC50 [3]: 9.58 µM (active)

CC1(C(=O)NS(=O)(=O)c2cccs2)CCN1C(=O)Cc1ccc(-c2ccccc2)cc1 (centres undefined)
IC50 [4]: > 100 µM (inactive)
